Columns and labels:
blood glucose levels = experiment: Blood glucose lowering pharmacodynamics in rats (Amplex Red Glucose/Glucose Oxidase Assay); type: in vivo; conditions: intravenous administration (FIG. 6)
Experimental: Blood glucose levels were determined in rats injected with free glucose and the conjugates using the Amplex Red Glucose/Glucose Oxidase Assay Kit (Invitrogen, Carlsbad, Calif., Cat. No. A22189).

[1] = rat

Row | Substance | duration of stably reduced blood glucose levels (blood glucose levels) | in vivo half life [1] | blood glucose lowering ability in vivo (blood glucose levels)
1 | VitD-(25)-PEG2K-insulin: 2 KDa PEG scaffold on carbon 25 of vitamin D, carrier conjugated to lysine 29 on the insulin B-chain | approximately eight | improved the in vivo half life | –
2 | 20K-PEG-insulin: 20 kD PEG-NHS conjugated to human insulin, one 20 kD PEG; benchmark therapeutic (see EP2288375) | – | improved the in vivo half life | did not display significant glucose lowering ability for an extended time
